Measured values published in patent US10441663B2, “Methods for treating cancer” (Bicycle Therapeutics Limited, priority 2016, dated 2019).
*1 amine or outer side, *2 acyl side, *3 side chain or, on linkers, in order; H or OH if unused. Where a SMILES comes first, the peptide text is derived from it. Bridges are numbered along the chain shown (N, C = ends). [ ]: non-standard residue; d: D form. The star is where a group is joined. X1 = COc1cc2cc(c1Cl)N(C)C(=O)C[C@H](OC(=O)[C@H](C)N(C)C(=O)CCSSC(C)CCC(=O)*)[C@]1(C)O[C@H]1[C@H](C)[C@@H]1C[C@@](O)(NC(=O)O1)[C@H](OC)/C=C/C=C(\C)C2; 1Nal = N[C@@H](Cc1cccc2ccccc12)C(=O)O; TBMB = c1c(C[*:1])cc(C[*:3])cc1C[*:2]; Tle = CC(C)(C)[C@H](N)C(=O)O; βAla = NCCC(=O)O; Sar = CNCC(=O)O

Tested on: NCI-H292 xenograft
Test: In vivo efficacy of BT1718 in NCI-H292 xenograft
Set-up: species or system Mus Musculus; key to Best response at 10 mg/kg: CR complete response; PR partial response
Experimental: The objective of this study was to evaluate the in vivo anti-tumor efficacy of BT1718in treatment of HT1080, NCI-H292, NCI-H1975, MDA-MB-231, HCC1806, RPMI2650, HCT-15, HT-29 and SNU-16 xenograft in BALB/c nude mice.
The HT1080, NCI-H292, NCI-H1975, MDA-MB-231, HCC1806, RPMI2650, HCT-15, HT-29 and SNU-16 tumor cells were maintained in vitro as a monolayer culture in medium supplemented with 10% heat inactivated fetal bovine serum at 37° C. in an […]. The tumor cells will be routinely subcultured twice weekly by trypsin-EDTA treatment. The cells growing in an exponential growth phase will be harvested and counted for tumor inoculation.
Mouse was inoculated subcutaneously at the right flank with tumor cells for tumor development. The animals were randomized and treatment was started when the average tumor reaches certain volume for the efficacy study, the inoculating cell amounts and starting tumor size were shown as below in Table 9. The test article administration and the animal numbers in each group were shown in the experimental design in Table 10.
All the procedures related to animal handling, care and the treatment in the study were performed according to the guidelines of the Association for Assessment and Accreditation of Laboratory Animal Care (AAALAC). At the time of routine monitoring, the animals were daily checked for any effects of tumor growth and treatments on normal behavior such as mobility, food and water consumption (by looking only), body weight gain/loss (body weights were measured every day), eye/hair matting and any other abnormal effect as stated in the protocol. Death and observed clinical signs were recorded on the basis of the numbers of animals within each subset.
The major endpoint was to see if the tumor growth could be delayed or mice could be cured. Tumor size was measured three times weekly in two dimensions using a caliper, and the volume was expressed in mm^3 using the formula: V=0.5 a×b^2 where a and b are the long and short diameters of the tumor, respectively. The tumor size was then used for calculations of T/C value. The T/C value (in percent) is an indication of antitumor effectiveness; T and C are the mean volumes of the treated and control groups, respectively, on a given day.
TGI was calculated for each group using the formula: TGI (%)=[1−(Ti−T0)/(Vi−V0)]×100; Ti is the average tumor volume of a treatment group on a given day, T0 is the average tumor volume of the treatment group on the day of treatment start, Vi is the average tumor volume of the vehicle control group on the same day with Ti, and V0 is the average tumor volume of the vehicle group on the day of treatment start.
Summary statistics, including mean and the standard error of the mean (SEM), are provided for the tumor volume of each group at each time point.
Statistical analysis of difference in tumor volume among the groups was conducted on the data obtained at the best therapeutic time point after the final dose.
A one-way ANOVA was performed to compare tumor volume among groups, and when a significant F-statistics (a ratio of treatment variance to the error variance) was obtained, comparisons between groups were carried out with Games-Howell test. All data were analyzed using Prism. P<0.05 was considered to be statistically significant.

Q: For COc1cc2cc(c1Cl)N(C)C(=O)C[C@H](OC(=O)[C@H](C)N(C)C(=O)CCSSC(C)CCC(=O)NCCC(=O)N(C)CC(=O)N(C)CC(=O)N(C)CC(=O)N(C)CC(=O)N(C)CC(=O)N(C)CC(=O)N(C)CC(=O)N(C)CC(=O)N(C)CC(=O)N(C)CC(=O)N[C@@H](C)C(=O)N[C@H]1CSCc3cc4cc(c3)CSC[C@H](NC(=O)[C@@H](C)NC(=O)[C@H](Cc3cccc5ccccc35)NC(=O)[C@H](CCC(=O)O)NC(=O)[C@H](CC(N)=O)NC(=O)[C@@H](C)NC1=O)C(=O)N[C@@H](CCC(=O)O)C(=O)N[C@@H](CC(=O)O)C(=O)N[C@@H](Cc1ccccc1)C(=O)N[C@@H](Cc1ccc(O)cc1)C(=O)N[C@@H](CC(=O)O)C(=O)N[C@@H](C(C)(C)C)C(=O)N[C@H](C(N)=O)CSC4)[C@]1(C)O[C@H]1[C@H](C)[C@@H]1C[C@@](O)(NC(=O)O1)[C@H](OC)/C=C/C=C(\C)C2 (stereo partly drawn) [BT1718] ({X1-βAla}-[Sar][Sar][Sar][Sar][Sar][Sar][Sar][Sar][Sar][Sar]AC[dA]NE[1Nal][dA]CEDFYD[Tle]C-NH2; linker 12-18-25 via TBMB (inferred)), which “tumors that failed to respond on resumed treatment” value (10 mg/kg biw re-treatment) is on record?
A: The value was 1/3.

Q: And the “tumors with lack of clear tumor growth on re-treatment” value (10 mg/kg biw re-treatment)?
A: Its value is 2/3.

Q: What about the “Body Weight” value (1 mpk biw, day 0) of the same compound?
A: The value was 22.8 ± 0.7 g.

Q: And the “Tumor Volume” value (1 mpk biw, day 0)?
A: Its value is 153 ± 9 mm^3.

Q: And the “Body Weight” value (1 mpk biw, day 2)?
A: Its value is 22.9 ± 0.3 g.

Q: And the “Tumor Volume” value (1 mpk biw, day 2)?
A: The value was 215 ± 25 mm^3.

Q: And the “Body Weight” value (1 mpk biw, day 4)?
A: Its value is 23.4 ± 0.5 g.

Q: What about the “Tumor Volume” value (1 mpk biw, day 4) of the same compound?
A: Its value is 326 ± 49 mm^3.

Q: What about the “Body Weight” value (1 mpk biw, day 7) of the same compound?
A: Its value is 23.6 ± 0.6 g.

Q: What about the “Tumor Volume” value (1 mpk biw, day 7) of the same compound?
A: Its value is 514 ± 54 mm^3.

Q: And the “Body Weight” value (1 mpk biw, day 9)?
A: The value was 23.7 ± 0.7 g.

Q: And the “Tumor Volume” value (1 mpk biw, day 9)?
A: The value was 669 ± 53 mm^3.

Q: And the “Body Weight” value (1 mpk biw, day 11)?
A: Its value is 23.4 ± 0.7 g.

Q: What about the “Tumor Volume” value (1 mpk biw, day 11) of the same compound?
A: The value was 978 ± 97 mm^3.

Q: What about the “Body Weight” value (1 mpk biw, day 14) of the same compound?
A: The value was 23.5 ± 1.0 g.

Q: And the “TGI (%)” value (1 mpk biw, day 14)?
A: The value was 20.7%.

Q: And the “Tumor Volume” value (1 mpk biw, day 14)?
A: The value was 1174 ± 98 mm^3.

Q: And the “Tumor Volume(mm^3)” value (1 mpk biw, day 14)?
A: Its value is 1174 ± 98 mm^3.

Q: And the “Body Weight” value (3 mpk biw, day 0)?
A: The value was 22.7 ± 0.5 g.

Q: And the “Tumor Volume” value (3 mpk biw, day 0)?
A: The value was 151 ± 15 mm^3.

Q: And the “Body Weight” value (3 mpk biw, day 2)?
A: The value was 23.5 ± 0.4 g.

Q: And the “Tumor Volume” value (3 mpk biw, day 2)?
A: Its value is 226 ± 22 mm^3.

Q: And the “Body Weight” value (3 mpk biw, day 4)?
A: Its value is 23.2 ± 0.7 g.

Q: What about the “Tumor Volume” value (3 mpk biw, day 4) of the same compound?
A: Its value is 334 ± 65 mm^3.

Q: And the “Body Weight” value (3 mpk biw, day 7)?
A: Its value is 23.4 ± 0.8 g.

Q: And the “Tumor Volume” value (3 mpk biw, day 7)?
A: Its value is 443 ± 70 mm^3.

Q: And the “Body Weight” value (3 mpk biw, day 9)?
A: Its value is 22.9 ± 0.9 g.

Q: What about the “Tumor Volume” value (3 mpk biw, day 9) of the same compound?
A: The value was 591 ± 90 mm^3.

Q: What about the “Body Weight” value (3 mpk biw, day 11) of the same compound?
A: The value was 22.6 ± 1.0 g.

Q: And the “Tumor Volume” value (3 mpk biw, day 11)?
A: The value was 781 ± 178 mm^3.

Q: What about the “Body Weight” value (3 mpk biw, day 14) of the same compound?
A: The value was 22.0 ± 1.2 g.

Q: And the “TGI (%)” value (3 mpk biw, day 14)?
A: Its value is 40.3%.

Q: And the “Tumor Volume” value (3 mpk biw, day 14)?
A: Its value is 920 ± 258 mm^3.

Q: And the “Tumor Volume(mm^3)” value (3 mpk biw, day 14)?
A: The value was 920 ± 258 mm^3.

Q: And the “Body Weight” value (10 mpk biw, day 0)?
A: The value was 22.8 ± 0.4 g.

Q: And the “Tumor Volume” value (10 mpk biw, day 0)?
A: The value was 153 ± 6 mm^3.

Q: And the “Body Weight” value (10 mpk biw, day 2)?
A: The value was 22.1 ± 0.3 g.

Q: What about the “Tumor Volume” value (10 mpk biw, day 2) of the same compound?
A: The value was 152 ± 8 mm^3.

Q: And the “Body Weight” value (10 mpk biw, day 4)?
A: Its value is 21.7 ± 0.3 g.

Q: And the “Tumor Volume” value (10 mpk biw, day 4)?
A: The value was 151 ± 32 mm^3.

Q: And the “Body Weight” value (10 mpk biw, day 7)?
A: Its value is 22.4 ± 0.3 g.

Q: What about the “Tumor Volume” value (10 mpk biw, day 7) of the same compound?
A: The value was 159 ± 49 mm^3.

Q: What about the “Body Weight” value (10 mpk biw, day 9) of the same compound?
A: Its value is 21.8 ± 0.2 g.

Q: What about the “Tumor Volume” value (10 mpk biw, day 9) of the same compound?
A: The value was 158 ± 49 mm^3.

Q: What about the “Body Weight” value (10 mpk biw, day 11) of the same compound?
A: Its value is 21.8 ± 0.2 g.

Q: What about the “Tumor Volume” value (10 mpk biw, day 11) of the same compound?
A: Its value is 143 ± 52 mm^3.

Q: And the “Body Weight” value (10 mpk biw, day 14)?
A: The value was 22.5 ± 0.4 g.

Q: What about the “TGI (%)” value (10 mpk biw, day 14) of the same compound?
A: The value was 101.6%.

Q: What about the “Tumor Volume” value (10 mpk biw, day 14) of the same compound?
A: The value was 133 ± 44 mm^3.

Q: What about the “Tumor Volume(mm^3)” value (10 mpk biw, day 14) of the same compound?
A: Its value is 133 ± 44 mm^3.

Q: And the “Best response at 10 mg/kg” value (NCI-H292, 10 mg/kg)?
A: Its value is “CR”.

Q: What about the “Minimally Effective Dose IV BIW” value (NCI-H292, dose leading to tumor-stasis) of the same compound?
A: The value was <10 mg/kg.

Q: And the “dosing suspension until re-growth to 150 mm3” value (after 10 mg/kg biw)?
A: The value was 2-3 weeks.

Q: And the “tumor volume after regression” value (after 4 weeks 10 mg/kg biw)?
A: The value was “below 50 mm3”.
